Each compound was assayed on T.b. brucei (strain 427) bloodstream form parasites (assay: T.b. brucei single concentration screen (10 μM)). Conditions: Trypanosoma brucei, read-out: T.b.brucei % viability (10 µM).

Row | Compound | viability at 10 µM [%]
1 | N#Cc1ccc(-c2ccc(OCC(N)=O)cc2)cc1 [MMV053220, NC(=O)COc1ccc(cc1)c2ccc(cc2)C#N] | 68
2 | CC(=O)N1CCc2cc3nc(C)cc(C)c3cc21 [MMV054312, CC(=O)N1CCc2cc3nc(C)cc(C)c3cc12] | 91
3 | Cc1cc(C)nc(-n2nc(C)cc2Nc2ccccc2)n1 [MMV062221, Cc1cc(C)nc(n1)n2nc(C)cc2Nc3ccccc3] | 103
4 | Cc1nn(Cc2ccccc2)c(Cl)c1C(=O)NC1CCCCCC1 [MMV063404, Cc1nn(Cc2ccccc2)c(Cl)c1C(=O)NC3CCCCCC3] | 96
5 | FC(F)(F)c1nnc2ccc(Cl)nn12 [MMV069458, FC(F)(F)c1nnc2ccc(Cl)nn12] | 100
6 | O=C1N(Cc2cc3ccccc3s2)CC2CN(Cc3ccccc3)CCN12 (stereo not drawn) [MMV084603, O=C1N(Cc2cc3ccccc3s2)CC4CN(Cc5ccccc5)CCN14] | 99
7 | O=C(Nc1cnc2ccccc2c1)c1cccc(-n2cnnn2)c1 [MMV084864, O=C(Nc1cnc2ccccc2c1)c3cccc(c3)n4cnnn4] | 80
8 | COc1cncc(-c2cncc(N3CCN(c4ccncc4)CC3)n2)c1 [MMV085071, COc1cncc(c1)c2cncc(n2)N3CCN(CC3)c4ccncc4] | 79
9 | O=C(C(Cc1c[nH]c2ccccc12)NS(=O)(=O)c1ccc(Cl)cc1)N1CCCCC1 (stereo not drawn) [MMV085210, Clc1ccc(cc1)S(=O)(=O)NC(Cc2c[nH]c3ccccc23)C(=O)N4CCCCC4] | 108
10 | CCCNC(=O)N1CCC2(CC1)CC(=O)c1cc(C)ccc1O2 [MMV085230, CCCNC(=O)N1CCC2(CC1)CC(=O)c3cc(C)ccc3O2] | 103
11 | N#Cc1ccc(-c2cnc(N)c(-c3ccc(C(N)=O)cc3)n2)cc1 [MMV085499, NC(=O)c1ccc(cc1)c2nc(cnc2N)c3ccc(cc3)C#N] | 31
12 | O=C(Nc1nnc(-c2ccc(Cl)cc2)o1)c1cccc(C(F)(F)F)c1 [MMV102872, FC(F)(F)c1cccc(c1)C(=O)Nc2oc(nn2)c3ccc(Cl)cc3] | 51
13 | CCC(C)NC(=O)c1ccc(NC(=O)C2(c3ccccc3)CCCC2)cc1 (stereo not drawn) [MMV146306, CCC(C)NC(=O)c1ccc(NC(=O)C2(CCCC2)c3ccccc3)cc1] | 69
14 | Cc1cc(Cl)ccc1NC(=O)CCc1ccc(S(=O)(=O)NCC(C)C)cc1 [MMV161996, CC(C)CNS(=O)(=O)c1ccc(CCC(=O)Nc2ccc(Cl)cc2C)cc1] | 97
15 | COc1ccc(C2(C(=O)Nc3ccc(Br)cc3)CCCC2)cc1 [MMV200748, COc1ccc(cc1)C2(CCCC2)C(=O)Nc3ccc(Br)cc3] | 100
16 | COc1ccc(OC(C)C(=O)Nc2ccc(Cl)cc2C)cc1 (stereo not drawn) [MMV202458, COc1ccc(OC(C)C(=O)Nc2ccc(Cl)cc2C)cc1] | 94
17 | COc1cccc(NC(=O)c2c(NC(=O)c3cccnc3)sc3c2CCC3)c1 [MMV228911, COc1cccc(NC(=O)c2c3CCCc3sc2NC(=O)c4cccnc4)c1] | 97
18 | COc1cccc(-c2cc3c(Nc4cccnc4)nccc3[nH]2)c1 [MMV392832, COc1cccc(c1)c2cc3c(Nc4cccnc4)nccc3[nH]2] | 101
19 | CN1CCN(c2nccc3[nH]c(-c4cccc(F)c4)cc23)CC1 [MMV393144, CN1CCN(CC1)c2nccc3[nH]c(cc23)c4cccc(F)c4] | 59
20 | Cc1cc(O)nc(-n2nc(C)cc2C)n1 [MMV393995, Cc1cc(O)nc(n1)n2nc(C)cc2C] | 71
21 | CCc1nc2ccc(C(=O)NCc3ccc4c(c3)OCO4)cn2c1N(C)Cc1cccs1 [MMV407539, CCc1nc2ccc(cn2c1N(C)Cc3cccs3)C(=O)NCc4ccc5OCOc5c4] | 82

Row | Compound | viability at 10 µM [%]
22 | CCOc1ccccc1NC(C)C(=O)Nc1cc(C(F)(F)F)ccc1N1CCOCC1 (stereo not drawn) [MMV407834, CCOc1ccccc1NC(C)C(=O)Nc2cc(ccc2N3CCOCC3)C(F)(F)F] | 104
23 | CS(=O)(=O)Cc1nc2ccccc2oc1=O [MMV553002, CS(=O)(=O)CC1=Nc2ccccc2OC1=O] | 114
24 | c1ccc(-c2cc(N3CCCCC3)c3ccccc3n2)nc1 [MMV560185, C1CCN(CC1)c2cc(nc3ccccc23)c4ccccn4] | 112
25 | CCC(Sc1nc2ccccc2o1)C(=O)Nc1nnc(C)s1 (stereo not drawn) [MMV611037, CCC(Sc1oc2ccccc2n1)C(=O)Nc3nnc(C)s3] | 113
26 | O=C(NCCN1CCCC1)c1cc(NCCN2CCOCC2)nc2ccc(Cl)cc12 [MMV634140, Clc1ccc2nc(cc(c2c1)C(=O)NCCN1CCCC1)NCCN1CCOCC1] | 89
27 | Cc1nc(-c2ccccn2)nc(N(C)CCc2ccccc2)c1Cl [MMV658988, CN(CCc1ccccc1)c2nc(nc(C)c2Cl)c3ccccn3] | 95
28 | Cc1nc(-c2ccccn2)nc(NCCc2ccc(S(C)(=O)=O)cc2)c1Cl [MMV658993, Cc1nc(nc(NCCc2ccc(cc2)S(=O)(=O)C)c1Cl)c3ccccn3] | 102
29 | Cc1nc(-c2ccccn2)nc(N2CCC(Cc3ccccc3)C2)c1Cl (stereo not drawn) [MMV659004, Cc1nc(nc(N2CCC(Cc3ccccc3)C2)c1Cl)c4ccccn4] | 109
30 | FC(F)(F)c1cc(NCCc2ccccc2)nc(-c2ccccn2)n1 [MMV659010, FC(F)(F)c1cc(NCCc2ccccc2)nc(n1)c3ccccn3] | 82
31 | Brc1cncc(-c2cc(NCCCn3ccnc3)nc(-c3ccccc3)n2)c1 [MMV661713, Brc1cncc(c1)c2cc(NCCCn3ccnc3)nc(n2)c4ccccc4] | 98
32 | Clc1cccc(C(c2ccc(CN3CCNCC3)cc2)n2ccnc2)c1 (stereo not drawn) [MMV663250, Clc1cccc(c1)C(c2ccc(CN3CCNCC3)cc2)n4ccnc4] | 75
33 | O=C(NCCN1CCCC1)c1cc(NCCCCN2CCC(F)(F)CC2)nc2ccc(Cl)cc12 [MMV667494, FC1(F)CCN(CCCCNc2cc(c3cc(ccc3n2)Cl)C(=O)NCCN2CCCC2)CC1] | 56
34 | Nc1ncc(-c2ccc(C(F)(F)F)nc2)cc1-c1ccc(C(F)(F)F)nc1 [MMV668727, Nc1ncc(cc1c2ccc(nc2)C(F)(F)F)c3ccc(nc3)C(F)(F)F] | 75
35 | Cc1[nH]c2cc(F)cc(F)c2c(=O)c1-c1ccc(Oc2ccc(OC(F)(F)F)cc2)cc1 [MMV671636, CC1=C(C(=O)c2c(F)cc(F)cc2N1)c3ccc(Oc4ccc(OC(F)(F)F)cc4)cc3] | 101
36 | CC(C)(C)c1ccc(N[C@@H]2CCCC[C@H]2NC(=O)c2ccco2)cc1 [MMV675969, CC(C)(C)c1ccc(N[C@@H]2CCCC[C@H]2NC(=O)c3occc3)cc1] | 114
37 | COc1ccc(-c2nn(C(C)C)c3ncnc(N)c23)cc1OC [MMV675993, COc1ccc(cc1OC)c2nn(C(C)C)c3ncnc(N)c23] | 38
38 | Clc1ccc(-n2cc(COc3ccnc4ccccc34)nn2)cc1 [MMV675994, Clc1ccc(cc1)n2cc(COc3ccnc4ccccc34)nn2] | 91
39 | COc1ccc(N(CCc2cccc(C)n2)C(C)=O)cc1 [MMV675995, COc1ccc(cc1)N(CCc2cccc(C)n2)C(=O)C] | 108
40 | COc1ccc(N(CCc2cccc(C)n2)C(=O)C2CCCCC2)cc1 [MMV675996, COc1ccc(cc1)N(CCc2cccc(C)n2)C(=O)C3CCCCC3] | 107
41 | N#CCN(CCCCN1CCN(c2ccc(F)cc2)CC1)C(=O)OCc1ccccc1 [MMV675997, Fc1ccc(cc1)N2CCN(CCCCN(CC#N)C(=O)OCc3ccccc3)CC2] | 97
42 | O=C(Nc1c(O)cccc1-c1nc2c(C(=O)O)cccc2o1)c1cc(-c2ccccc2)on1 [MMV676008, OC(=O)c1cccc2oc(nc12)c3cccc(O)c3NC(=O)c4cc(on4)c5ccccc5] | 110

From paper PMC6301270 (MedChemComm, 2018)
